The values below are quoted from earlier work in patent US20220339166A1, “POST COVID19 VACCINE REMEDIES” (priority 2021, published 2022).

The subject of one series is mouse bone marrow. The note with it: in vivo.
In another series the target is ODC (Homo sapiens, UniProt P11926).
The next series concerns the target ACE2 (Homo sapiens, UniProt Q9BYF1).

Where two headings read alike, the source gives them in different places.

Chain of ACE2 (Q9BYF1 18-805): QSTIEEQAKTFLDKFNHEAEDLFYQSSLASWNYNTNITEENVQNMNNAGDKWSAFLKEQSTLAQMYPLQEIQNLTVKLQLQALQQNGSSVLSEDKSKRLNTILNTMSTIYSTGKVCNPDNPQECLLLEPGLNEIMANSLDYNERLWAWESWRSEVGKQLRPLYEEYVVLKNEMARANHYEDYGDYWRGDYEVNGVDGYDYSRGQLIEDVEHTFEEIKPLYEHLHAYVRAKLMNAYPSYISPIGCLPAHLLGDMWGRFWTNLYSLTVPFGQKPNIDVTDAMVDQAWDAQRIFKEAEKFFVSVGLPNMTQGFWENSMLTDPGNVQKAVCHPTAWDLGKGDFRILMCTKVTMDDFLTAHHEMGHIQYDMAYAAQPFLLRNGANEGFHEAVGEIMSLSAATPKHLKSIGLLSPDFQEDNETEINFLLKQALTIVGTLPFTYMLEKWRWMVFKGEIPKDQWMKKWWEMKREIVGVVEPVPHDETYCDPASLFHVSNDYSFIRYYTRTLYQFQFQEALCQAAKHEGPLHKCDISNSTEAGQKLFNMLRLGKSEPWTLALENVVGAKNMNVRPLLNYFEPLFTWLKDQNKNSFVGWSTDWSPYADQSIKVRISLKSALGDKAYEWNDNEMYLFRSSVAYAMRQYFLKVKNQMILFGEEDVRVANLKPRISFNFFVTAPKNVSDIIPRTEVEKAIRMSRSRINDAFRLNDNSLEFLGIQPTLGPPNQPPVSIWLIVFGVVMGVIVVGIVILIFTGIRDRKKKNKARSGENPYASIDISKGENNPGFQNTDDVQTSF
Chain of ODC (P11926 whole entry): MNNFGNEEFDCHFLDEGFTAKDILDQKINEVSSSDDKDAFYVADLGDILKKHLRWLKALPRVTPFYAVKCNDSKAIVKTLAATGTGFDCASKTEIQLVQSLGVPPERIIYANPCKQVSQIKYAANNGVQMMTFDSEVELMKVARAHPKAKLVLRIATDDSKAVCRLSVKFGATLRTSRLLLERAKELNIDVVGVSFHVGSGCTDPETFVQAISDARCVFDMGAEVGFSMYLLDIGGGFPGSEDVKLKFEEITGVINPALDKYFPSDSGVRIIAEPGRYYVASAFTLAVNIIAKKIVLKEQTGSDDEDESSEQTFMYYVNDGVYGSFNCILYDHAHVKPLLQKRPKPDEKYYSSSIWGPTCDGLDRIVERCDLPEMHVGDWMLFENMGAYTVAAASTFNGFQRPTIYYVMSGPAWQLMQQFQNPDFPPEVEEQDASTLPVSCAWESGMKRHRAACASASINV

As to `NCCS` [Cysteamine], the DNA synthesis entry with mouse bone marrow was “inhibits DNA synthesis”.
For the molecule `NCCCC(N)(C(=O)O)C(F)F` (stereo not drawn) [DFMO], the “stalls DNA synthesis” value on ODC is reported as 70-80%.
As to `O=C(Cn1ccnc1[N+](=O)[O-])NCc1ccccc1` [benznidazole], the effective in curing in the series on Trypanosoma cruzi (given soon after infection, at the onset of the acute phase) is recorded as about 100%.
For the molecule `NCCCC[C@H](N)C(=O)O` [lysine], at ACE2, the “reduction of ACE2 affinity and interference with fusion domain for S1 spike protein” value is reported as 10%.
In the case of `CC1CS(=O)(=O)CCN1/N=C/c1ccc([N+](=O)[O-])o1` (stereo not drawn) [nifurtimox], the effective in curing in the series with Trypanosoma cruzi (in vivo) is reported as about 100%.
As for `O=C([O-])O.[Na+]` [sodium bicarbonate], the “reduction of ACE2 affinity and interference with fusion domain for S1 spike protein” value on ACE2 is reported as 17%.
